For this test, the target named is T1, AR-P766S (Homo sapiens, UniProt P10275, P767S).
T1 construct: expressed in transfected cells
T1 sequence (P10275 1-920 P767S): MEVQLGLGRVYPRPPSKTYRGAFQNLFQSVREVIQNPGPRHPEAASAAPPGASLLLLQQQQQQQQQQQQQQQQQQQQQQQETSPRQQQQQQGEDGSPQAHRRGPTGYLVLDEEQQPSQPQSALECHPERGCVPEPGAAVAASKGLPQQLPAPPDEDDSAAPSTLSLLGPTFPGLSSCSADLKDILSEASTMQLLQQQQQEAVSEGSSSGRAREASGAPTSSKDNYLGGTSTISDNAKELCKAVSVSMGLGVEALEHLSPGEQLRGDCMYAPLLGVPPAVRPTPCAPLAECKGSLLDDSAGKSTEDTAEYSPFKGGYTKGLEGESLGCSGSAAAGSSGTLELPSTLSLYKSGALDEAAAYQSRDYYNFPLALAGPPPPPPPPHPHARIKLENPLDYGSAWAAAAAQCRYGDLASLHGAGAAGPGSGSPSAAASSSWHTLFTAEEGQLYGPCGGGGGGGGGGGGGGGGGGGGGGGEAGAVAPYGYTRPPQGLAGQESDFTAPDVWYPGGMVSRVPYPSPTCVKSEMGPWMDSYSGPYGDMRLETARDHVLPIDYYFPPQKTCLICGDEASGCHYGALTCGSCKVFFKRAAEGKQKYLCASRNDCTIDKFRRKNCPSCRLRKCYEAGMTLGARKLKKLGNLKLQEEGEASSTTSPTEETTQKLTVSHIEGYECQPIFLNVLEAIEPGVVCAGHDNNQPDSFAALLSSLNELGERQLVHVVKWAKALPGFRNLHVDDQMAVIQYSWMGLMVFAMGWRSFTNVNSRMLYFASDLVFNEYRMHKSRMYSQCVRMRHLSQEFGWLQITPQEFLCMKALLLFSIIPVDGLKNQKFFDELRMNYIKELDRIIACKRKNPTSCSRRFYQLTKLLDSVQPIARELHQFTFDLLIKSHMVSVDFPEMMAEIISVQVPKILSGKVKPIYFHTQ
The class given is cell-based. To be noted: HeLa P766S. The method, then: To determine the global effect of the various AIS mutations on AR signaling, each was analyzed using HCA. This technology allows simultaneous quantification of AR protein expression, nuclear translocation, subnuclear patterning, and transcriptional activity. The analysis was done in HeLa cell lines stably transfected with wild type or mutant ARs fused with green fluorescent protein, or using AR immunofluorescence in primary cultures of genital skin fibroblasts generated from foreskin biopsies of historical AIS patients, or of normal neonates undergoing circumcision at birth. To prevent the effects of receptor over-expression, stable HeLa cells were carefully selected to express AR levels similar to LNCaP as previously described. Prior to ligand treatment, HeLa cells were transfected with the pARR2PB-dsRED2skl reporter plasmid, consisting of the AR responsive promoter ARR2PB [31] driving expression of the red fluorescent protein reporter dsRED2skl engineered to target peroxisomes.
For studies utilizing HeLa GFP-AR cell lines, twenty-four hours before transfection with pARR2PB-dsRED2skl, cells were plated onto 100 mm plastic dishes in medium supplemented with 5% charcoal-stripped and dialyzed-FBS. Transient introduction of the pARR-2PB-dsRED2skl reporter construct was performed using 6.0 µg reporter plasmid and 6.0 µg carrier DNA (BlueScript, Stratagene, San Diego, CA) using Transfectin (Biorad) following standard protocols. After 8-hour incubation, DNA/lipid complexes were removed. Cells were then trypsinized and replated at 10,000 cells per well in Nunc poly-D-lysine treated 96-well optical glass bottom plates and incubated an additional 12 hours to allow for cell adhesion. […] Compound dilutions and final addition to multi-well plates were performed using a Beckman Biomek NX robotic platform to ensure repeatability from experiment to experiment. After incubation was complete, using the Biomek NX robot, plates were washed with PBS and fixed for 20 min at RT in 4% formaldehyde prepared in CSK buffer (80 mM potassium PIPES, pH 6.8, 5 mM EGTA, 2 mM MgCl2). After fixation, cells were briefly permeabilized (5 min) with 0.5% Triton-X and prepared for imaging by washing in PBS, aspirating the washed solution, and adding a 1 ng/ml DAPI solution to stain DNA and a generic protein stain (CellMask, Invitrogen) to facilitate cell and nuclear image segmentation. Cells were imaged in PBS.
Cells were imaged using the Cell Lab IC-100 Image Cytometer (IC-100; Beckman Coulter) platform that consists of 1) Nikon Eclipse TE2000-U Inverted Microscope (Nikon; Melville, NY); 2) Chroma 82000 triple band filter set (Chroma; Brattleboro, VT); 3) an imaging camera: Hamamatsu ORCA-ER Digital CCD camera (Hamamatsu; Bridgewater, NJ); and 4) a focusing camera: Photonics COHU Progressive scan camera (Photonics; Oxford, MA). […] In general, 49 to 64 images were captured per well for image analysis.
While our initial AR studies using HTM were based upon CytoShop (Beckman-Coulter), [15], [33], these approaches were refined in the current work with the more robust server-client Pipeline Pilot image analysis platform (Basic and Advanced Imagine Collections, Pipeline Pilot 7.5, Accelrys, San Diego). Initially, the background signal was removed from all images using plate- and channel-specific correction images, generated by the sum projection of >600 randomly selected images for each channel from the image set. This allows for a pixel-by-pixel background subtraction that compensates any consistent uneven background artifacts in the image set. Furthermore, users are able to customize the degree of background subtraction by applying a multiplier to each correction image, useful for identification of objects such as nuclei or cell borders. After background subtraction, nuclear masks were generated using a combination of non-linear least squares and watershed-from-markers image manipulations of the DAPI images (Fig. 1B).

Turning to `C[C@@H]1CC2=CC(=O)CC[C@@H]2[C@H]2CC[C@@]3(C)[C@@H](CC[C@]3(C)O)[C@@H]21` [Mb, Mibolerone], for the setting “% signal present in the nucleus”, the “Nuclear Translocation, Max” value was determined as 78.9±1.5%. The “Hyperspeckling, Max” value (absolute numerical measurement) is listed as 785±30. Moreover, the “Transcriptional Activity, Max” value (pARR2PB-dsRED2skl reporter, absolute numerical measurement) worked out at 98±2.2.
